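Exposure lasted 48 hours, with cells grown in 96-well plates and compounds tested at five concentrations. The concentration for 50% growth inhibition is given as GI50.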 The source made the active and inactive calls. Cut-off read from the data, not from the text of the source: active = GI50 up to about 1.1 µM and inactive = higher.
What was measured:
Assay in all cases: DTP human tumour cell line panel, 48 h
[1] = tested on: A498
[2] = tested on: ACHN
[3] = tested on: HCC 2998
[4] = tested on: HCT-15
[5] = tested on: HOP-62
[6] = tested on: K562
[7] = tested on: KM12
[8] = tested on: MCF7
[9] = tested on: NCI-H226
[10] = tested on: NCI-H23
[11] = tested on: NCI-H522
[12] = tested on: OVCAR-4
[13] = tested on: RXF 393
[14] = tested on: SF-268
[15] = tested on: SF-539
[16] = tested on: SN12C
[17] = tested on: SNB-19
[18] = tested on: T47D
[19] = tested on: TK-10
[20] = tested on: UACC-62

SMILES | GI50 [1] | GI50 [2] | GI50 [3] | GI50 [4] | GI50 [5] | GI50 [6] | GI50 [7] | GI50 [8] | GI50 [9] | GI50 [10] | GI50 [11] | GI50 [12] | GI50 [13] | GI50 [14] | GI50 [15] | GI50 [16] | GI50 [17] | GI50 [18] | GI50 [19] | GI50 [20]
OC(CC(CC(O)(C(F)(F)Cl)C(F)(F)Cl)=NNc1ccccc1)(C(F)(F)Cl)C(F)(F)Cl | 2.54 µM (inactive) | 2.79 µM (inactive) | 4.23 µM (inactive) | 3.23 µM | 3.43 µM (inactive) | > 10 µM (inactive) | 3.12 µM (inactive) | 2.94 µM (inactive) | 2.99 µM (inactive) | 2.41 µM (inactive) | 4.4 µM (inactive) | 3.33 µM (inactive) | 2.8 µM (inactive) | 2.55 µM (inactive) | 2.95 µM (inactive) | 3.36 µM (inactive) | 4.01 µM (inactive) | 4.11 µM (inactive) | 3.88 µM (inactive) | 1.66 µM (inactive)
Clc1ccc(C2c3ccccc3-c3nc4ccccc4n32)cc1 (centres undefined) | 25.1 µM (inactive) | 23 µM (inactive) | 18.9 µM (inactive) | 17.3 µM | 16.9 µM (inactive) | > 22.4 µM (inactive) | 13 µM (inactive) | 18.3 µM (inactive) | > 42.5 µM (inactive) | 15.5 µM (inactive) | 11.6 µM (inactive) | 15.9 µM (inactive) | 5.26 µM (inactive) | 25 µM (inactive) | > 54.7 µM (inactive) | 42.1 µM (inactive) | 31.7 µM (inactive) | > 27.2 µM (inactive) | > 66.7 µM (inactive) | 26.3 µM (inactive)
COCN1C(=O)[C@@H]2CCCN2C(=O)c2ccc(Cl)cc21 | > 100 µM (inactive) | > 100 µM (inactive) | > 100 µM (inactive) | > 100 µM | > 100 µM (inactive) | > 100 µM (inactive) | > 100 µM (inactive) | > 100 µM (inactive) | > 100 µM (inactive) | > 100 µM (inactive) | > 100 µM (inactive) | > 100 µM (inactive) | > 100 µM (inactive) | > 100 µM (inactive) |  | > 100 µM (inactive) | > 100 µM (inactive) | > 100 µM (inactive) | > 100 µM (inactive) | > 100 µM (inactive)
Brc1c(C#CCC2CCCCC2)ccc(C#CCC2CCCCC2)c1Br | > 100 µM (inactive) | > 100 µM (inactive) | > 100 µM (inactive) | > 100 µM |  | > 100 µM (inactive) | > 100 µM (inactive) | > 100 µM (inactive) | > 100 µM (inactive) |  | > 100 µM (inactive) | > 100 µM (inactive) | > 100 µM (inactive) | > 100 µM (inactive) | > 100 µM (inactive) | > 100 µM (inactive) | > 100 µM (inactive) | > 100 µM (inactive) | > 100 µM (inactive) | > 100 µM (inactive)
O=C(CCc1ccc(O)cc1)NCCCNC(=O)CCc1ccc(O)cc1 | > 100 µM (inactive) | > 100 µM (inactive) | > 100 µM (inactive) | > 100 µM | > 100 µM (inactive) | > 100 µM (inactive) | > 100 µM (inactive) | > 100 µM (inactive) | > 100 µM (inactive) | > 100 µM (inactive) | > 100 µM (inactive) | > 100 µM (inactive) | > 100 µM (inactive) | > 100 µM (inactive) | > 100 µM (inactive) | > 100 µM (inactive) | > 100 µM (inactive) | > 100 µM (inactive) |  | > 100 µM (inactive)
CCCS(=O)(=O)Nc1ccc(Nc2c3ccccc3nc3ccccc23)c(OC)c1 | 0.904 µM (active) | 0.362 µM (active) | 2.1 µM (inactive) | 1.35 µM | 0.561 µM (active) |  | 1.92 µM (inactive) | 0.365 µM (active) | 1.46 µM (inactive) | 0.421 µM (active) | 0.38 µM (active) | 7.62 µM (inactive) | 5.19 µM (inactive) | 0.853 µM (active) | 1.17 µM (inactive) | 0.127 µM (active) | 1.08 µM (active) | 0.902 µM (active) | 3.78 µM (inactive) | 0.695 µM (active)
C=CC(O)(CBr)CCC(Br)C(C)(C)Cl (centres undefined) | > 10 µM (inactive) | > 10 µM (inactive) | > 10 µM (inactive) | > 10 µM | > 10 µM (inactive) | > 10 µM (inactive) | > 10 µM (inactive) | > 10 µM (inactive) | > 10 µM (inactive) | > 10 µM (inactive) | > 10 µM (inactive) | > 10 µM (inactive) | > 10 µM (inactive) | > 10 µM (inactive) | > 10 µM (inactive) | > 10 µM (inactive) | > 10 µM (inactive) | > 10 µM (inactive) | > 10 µM (inactive) | 
Cc1csc(NNC(=O)Nc2ccccc2)n1 | > 100 µM (inactive) | > 100 µM (inactive) | > 100 µM (inactive) | > 100 µM | > 100 µM (inactive) | > 100 µM (inactive) | > 100 µM (inactive) | > 100 µM (inactive) | > 100 µM (inactive) | > 100 µM (inactive) | > 100 µM (inactive) | > 100 µM (inactive) | > 100 µM (inactive) | > 100 µM (inactive) | > 100 µM (inactive) | > 100 µM (inactive) | > 100 µM (inactive) | > 100 µM (inactive) |  | > 100 µM (inactive)
Nc1nc(N)c2ncn(Cc3ccccc3)c2n1 | > 100 µM (inactive) | > 100 µM (inactive) | > 100 µM (inactive) | > 100 µM | > 100 µM (inactive) |  | > 100 µM (inactive) | > 100 µM (inactive) | > 100 µM (inactive) | > 100 µM (inactive) | > 100 µM (inactive) | > 100 µM (inactive) | > 100 µM (inactive) | > 100 µM (inactive) | > 100 µM (inactive) | > 100 µM (inactive) | > 100 µM (inactive) | > 100 µM (inactive) | > 100 µM (inactive) | > 100 µM (inactive)
CSc1c(C#N)c(S)[nH]c(=O)c1C#N | 38.2 µM (inactive) |  | 36.2 µM (inactive) | 44.4 µM |  | 18.1 µM (inactive) | 65.8 µM (inactive) | 37.9 µM (inactive) | 30.3 µM (inactive) | 23.7 µM (inactive) | 8.34 µM (inactive) | 10.4 µM (inactive) | 26.1 µM (inactive) | 32.7 µM (inactive) | > 100 µM (inactive) | 85.5 µM (inactive) | 58.5 µM (inactive) | 24.9 µM (inactive) | 23.2 µM (inactive) | 21.2 µM (inactive)
Cc1ccc2nc(NC(=O)C(=O)C3C(=O)NC(=S)NC3=O)sc2c1 | > 100 µM (inactive) | > 100 µM (inactive) | > 100 µM (inactive) | > 100 µM | > 100 µM (inactive) |  | > 100 µM (inactive) | > 100 µM (inactive) | > 100 µM (inactive) | > 100 µM (inactive) | 78 µM (inactive) | > 100 µM (inactive) | 43.6 µM (inactive) | > 100 µM (inactive) | > 100 µM (inactive) | > 100 µM (inactive) | > 100 µM (inactive) | > 100 µM (inactive) | > 100 µM (inactive) | > 100 µM (inactive)

Source: ChEMBL document CHEMBL1201862, “PubChem BioAssay data set” (2004)
